Starred links: 1 amine or outer side, 2 acyl side, 3 side chain; linkers in the order of their positions; H or OH if unused. Non-standard residues stand in square brackets, D forms with d. Residues, ends and D or L forms follow the SMILES beside them. ξ: configuration not given here. X5 = CC(CC(C(=O)[*:2])N(C)[*:1])C(C)OC=O; X2 = CC(COC=O)CC(C(=O)[*:2])N(C)[*:1]; X4 = CC(O)C(C)CC(C(=O)[*:2])N(C)[*:1]; ξNle(4-Me,5-ene) = C=CC(C)CC(N)C(=O)O; X1 = CCC(C)CC(C(=O)[*:2])N(C)[*:1]; X3 = CC(CO)CC(C(=O)[*:2])N(C)[*:1]; ξLeu(3ξ-OH) = CC(C)C(O)C(N)C(=O)O; NMeA = CN[CH](C)C(=O)O
Legend:
[1] = tested on: HCoV-229E-Luc; test: microbe, parasite or virus in culture; type: cell-based, human alphacoronavirus HCoV-229-E; settings: Alphacoronavirus, Huh-7, 24 h, read-out: IC50 (nM) Huh7
[2] = tested on: ZIKV^GFP; test: ZIKV^GFP antiviral assay, GFP by FACS at 24 h post-infection; type: cell-based; settings: Zika virus
From the text: The antiviral activity of the compounds (C1 and C3 to C7) of formula (I) has been evaluated against Zika virus as representative of flaviviruses. Vero, A549 or Huh7.5 cells were infected with ZIKV^GFP (MOI=2) and simultaneously treated with increasing concentrations of the compounds of formula (I) (C1 and C3 to C7) or ternatin (ten-fold serial dilutions of considered compound).

[3] = Cellular cytotoxicity, MTT assay, Vero E6; type: cell-based; settings: african green monkey, Vero E6 cells, 48 h of treatment
Experimental: (§1) Cytotoxicity of the compounds of formula (I) was evaluated on A549, Vero E6 and Huh7 cells by measuring the mitochondrial activity after 48 h of treatment by an MTT assay.

[4] = Cellular cytotoxicity, MTT assay, A549; type: cell-based; settings: human, A549 cells, 48 h of treatment
Experimental: as §1

[5] = Cellular cytotoxicity, MTT assay, Huh7; type: cell-based; settings: human, Huh7 cells, 48 h of treatment
Experimental: as §1

[6] = tested on: DENV; test: DENV antiviral assay, infected cells by FACS at 72 h post-infection; type: cell-based; settings: Dengue virus; Vero cells, DENV MOI = 0.1, 72 h post-infection, Figure 9C; read-out: IC50 against DENV
Experimental: At 72 h post-infection, the percentage of DENV-infected cells was measured by FACS assay.

[7] = tested on: ZIKV^GFP; test: ZIKV^GFP antiviral assay, GFP by FACS at 48 h post-infection; type: cell-based; settings: Zika virus, Vero, read-out: IC50 against ZIKV
From the text: Vero cells were infected with ZIKV^GFP (MOI=2) and simultaneously treated with increasing concentrations of the compound C1 or ternatin (ten-fold serial dilutions of considered compound).

[8] = tested on: RRV^GFP; test: microbe, parasite or virus in culture; settings: Ross River virus, Vero, 18 h, read-out: IC50 against RRV
Experimental: At 18 h post-infection, the percentage of GFP expressed by the cells is measured by FACS (Flow cytometric analysis of GFP fluorescence). Data represent the means ± SD of four independent experiments performed in triplicate and are expressed as relative values compared to mock-treated control.

[9] = tested on: adult zebrafish
Experimental: (D) Total distance travelled at 1 day post injection. […] After injection, fish were observed during 5 days. Statistical analyses were conducted using unpaired t-test comparisons, n = 5 (n: number of fishes per group).

[10] = tested on: ZIKV^GFP; test: Time of drug-addition assay, ZIKV^GFP in A549 cells; settings: 10 nM, Figure 11C
Experimental: Time of drug-addition assay aims at characterizing the antiviral action of the compounds of the invention on various stages of the dissecting virus infectious cycle.
Compound C1 (10 nM) or vehicle were used for treatment of A549 cells for viral inactivation assay, concurrently to virus input (Entry), after virus exposure (Replication) with specific washing steps and incubation periods (Figure 11A).
The data represent the means ± SD of four independent experiments performed in triplicate, and are expressed as relative values compared to vehicle-treated cells.

[11] = tested on: SARS-CoV-2; test: SARS-CoV-2 viral progeny, PFU assay (plaque-forming assay) of Huh7 supernatant; type: cell-based; settings: Huh7 cells, MOI=0.01, 24 h post-infection, at 0.6 nM, Figure 10B
Experimental: The compound C1 has been tested on the betacoronavirus SARS-CoV-2. Huh7 cells were infected with SARS-CoV-2 (MOI=0.01) and simultaneously treated with increasing concentrations of the compound of formula (I). At 24 h post-infection, cell supernatant was recovered for viral titration (Figure 10B). Viral progeny was measured by a PFU assay (plaque-forming assay) by quantifying infectious particles in the supernatant (PFU/mL).

[12] = tested on: SARS-CoV-2; test: Preclinical model in human primary bronchial epithelial cells (Mucilair), viral RNA by qRTPCR; type: cell-based; settings: Severe acute respiratory syndrome coronavirus 2, Primary bronchial epithelial cell, viral RNA at 72 h post-inoculation, Figure 12, read-out: inhibition of the infection by SARS-CoV-2
Experimental: The compound C1 was evaluated on a preclinical model in human primary bronchial epithelial cells (Mucilair) against SARS-CoV-2 (T. Meunier et al., Antimicrob Agents Chemother. 2022 Feb; 66(2): e01581-21). Mucilair cells were inoculated with SARS-CoV-2 in the presence of compound C1 at 0.75, 7.5 or 75 pM for 1 h at the apical side. Inoculum was removed 1 h post-infection. At 72 h post-inoculation, cells were lysed to extract RNA. Viral RNA was quantified by qRTPCR. For RNA quantification, data are expressed relative to the Mock-treated control.

[13] = A549, 24 h, read-out: IC50 (nM) A549
[14] = Huh7.5, 24 h, read-out: IC50 (nM) Huh7.5
[15] = Vero, 24 h, read-out: IC50 (nM) Vero

SMILES	IC50 [1] [nM]	IC50 [2, 13] [nM]	IC50 [2, 14] [nM]	IC50 [2, 15] [nM]	CC50 at 48 h [3] [nM]	CC50 at 48 h [4] [nM]	CC50 at 48 h [5] [nM]	IC50 [6] [nM]	IC50 [7] [nM]	IC50 [8] [nM]	toxicity in adult zebrafish ([9]; at the effective antiviral dose, injected 10 ng/µL, observed during 5 days)	fine-tune locomotor activity of zebrafish ([9]; injected with 10 ng/µL, 1 day post injection, Figure 13)	stage of viral infection targeted [10]	reduces SARS-CoV-2 viral progeny production [11] [logs]	inhibition at 75 pM [12] [%]
C=CC(C)CC1NC(=O)C(CC(C)CO)N(C)C(=O)C(C)N(C)C(=O)C(C(C)CC)NC(=O)C(C(O)C(C)C)NC(=O)C(C)N(C)C(=O)C(C)N(C)C1=O (stereo not shown) [Compound C4, comptonellin D] (cyclo([X3][ξNle(4-Me,5-ene)][NMeA][NMeA][ξLeu(3ξ-OH)]I[NMeA]); configuration not given here)	96.8	26	12	163	3760	52.8	9.35	–	–	–	–	–	–	–	–
COc1cc(-c2oc3c(OC)c(OC)cc(O)c3c(=O)c2OC)ccc1O [Ternatin, ternatin]	157	92	23	584	–	–	–	493	860	977	–	–	–	–	–
C=CC(C)CC1NC(=O)C(CC(C)C(C)O)N(C)C(=O)C(C)N(C)C(=O)C(C(C)CC)NC(=O)C(C(O)C(C)C)NC(=O)C(C)N(C)C(=O)C(C)N(C)C1=O (stereo not shown) [Compound C5, comptonellin E] (cyclo([X4][ξNle(4-Me,5-ene)][NMeA][NMeA][ξLeu(3ξ-OH)]I[NMeA]); configuration not given here)	98.5	40	11	244	4810	99.8	31.9	–	–	–	–	–	–	–	–
C=CC(C)CC1NC(=O)C(CC(C)CC)N(C)C(=O)C(C)N(C)C(=O)C(C(C)CC)NC(=O)C(C(O)C(C)C)NC(=O)C(C)N(C)C(=O)C(C)N(C)C1=O (stereo not shown) [Compound C3, comptonellin C] (cyclo([X1][ξNle(4-Me,5-ene)][NMeA][NMeA][ξLeu(3ξ-OH)]I[NMeA]); configuration not given here)	2.4	0.5	0.003	9	412	–	–	–	–	–	–	–	–	–	–
C=CC(C)CC1NC(=O)C(CC(C)C)N(C)C(=O)C(C)N(C)C(=O)C(C(C)CC)NC(=O)C(C(O)C(C)C)NC(=O)C(C)N(C)C(=O)C(C)N(C)C1=O (stereo not shown) [Compound C1, comptonellin A]	5	4	2	9	200	11.2	4.9	42	60	57	no toxicity	did not impair fine-tune locomotor activity	targets late stages of viral infection	3	> 98
C=CC(C)CC1NC(=O)C(CC(C)COC=O)N(C)C(=O)C(C)N(C)C(=O)C(C(C)CC)NC(=O)C(C(O)C(C)C)NC(=O)C(C)N(C)C(=O)C(C)N(C)C1=O (stereo not shown) [Compound C6, comptonellin F] (cyclo([X2][ξNle(4-Me,5-ene)][NMeA][NMeA][ξLeu(3ξ-OH)]I[NMeA]); configuration not given here)	36.8	13	9	115	3530	41	22.1	–	–	–	–	–	–	–	–
C=CC(C)CC1NC(=O)C(CC(C)C(C)OC=O)N(C)C(=O)C(C)N(C)C(=O)C(C(C)CC)NC(=O)C(C(O)C(C)C)NC(=O)C(C)N(C)C(=O)C(C)N(C)C1=O (stereo not shown) [Compound C7, comptonellin G] (cyclo([X5][ξNle(4-Me,5-ene)][NMeA][NMeA][ξLeu(3ξ-OH)]I[NMeA]); configuration not given here)	15	46	16	176	379	80.6	93.9	–	–	–	–	–	–	–	–
